# Reference: patent US20220273678A1 (priority 2020, published 2022)
# “Also recorded” adds a separate entry of the source. Where two headings read alike, the source gives them in different places.
# Columns and labels:
# SARS-CoV-2 [1] = assay: microbe, parasite or virus in culture; format: cell-based
# [2] = mice, doses as high as 230 mg/kg/day; cited from earlier work
# SARS-CoV-2 [3] = assay: K18-hACE2 mice infected with SARS-CoV-2 (wild type), lung viral titer and viral protein; format: in vivo
# cleaved caspase 3 [4] = format: cell-based, African green monkey; details: Vero, methanesulfonate
# SARS-CoV-2 [5] = format: cell-based
# [6] = tested on: IL-6, IL-1β, IL-8, IL-10, TNF-α; format: cell-based, human
# IL-6 = format: cell-based, African green monkey; details: Mito-MES 10-1000 nM, 4F 10 μM
# [7] = tested on: SARS-CoV-2 wild type (WT); assay: Lung inflammation in K18-hACE2 mice infected with SARS-CoV-2 wild type (cohort A, 3 dpi); format: in vivo
# [8] = cited from earlier work
# icSARS-CoV-2-mNG [9] = format: cell-based, SARS-CoV-2
# icSARS-CoV-2-mNG [10] = format: cell-based, SARS-CoV-2; details: methanesulfonate
# [11] = tested on: murine coronavirus hepatitis virus A-59 (MHV-A59); assay: Mouse hepatitis virus A-59 in 17Cl-1 fibroblast cells; format: cell-based; details: mouse 17C1-1 fibroblast cells, 1000 nM
# [12] = tested on: mitochondrial reactive oxygen species (mito-ROS); assay: Mitochondrial reactive oxygen species (MitoSOX Red) and ROS content in Calu3 cells; details: 1000 nM Mito-MES; methanesulfonate
# Method: Flow cytometry was used to determine the cellular content of Calu3 cells for mitochondrial reactive oxygen species (mito-ROS) based on the median fluorescence intensity (MFI) of the fluorochrome MitoSOX Red and was compared to a negative cell population (fluorescence minus one negative control for staining) (ΔMFI). Flow cytometry was used to determine the percent of SARS-CoV-2 infected Calu3 cells positive for MitoSOX Red. Calu3 and Vero cells were treated with DMSO vehicle control (Ctrl) or the mitochondrial antioxidants MitoTEMPO (25-1000 nM) (72 h) or Mito-MES (25-1000 nM) (72 h) and were infected with a fluorescent mNeonGreen SARS-CoV-2 (icSARS-CoV-2-mNG) (MOI 0.3) (48 h). Immunofluorescent analysis of viral replication and cellular oxidative stress was performed at 48 hpi. […] Viral replication was determined by TCID50-assay (FIG. 3-d), cell cytotoxicity was assessed by the XTT assay in uninfected cells treated with dTPP (0.01-10 μM) (72 h) (FIG. 3-e). […]
# After 24 h (or 48 h, experiments involving 4F) post-infection, cells were collected and stained with 5 μM MitoSOX Red Mitochondrial reactive oxygen species (mito-ROS) indicator for 30 min at 37° C. […] Cells were then analyzed using an LSR Fortessa flow cytometer and FACSDiva software (Becton & Dickinson, San Diego, Calif., USA), and data were analyzed using FlowJo software.
# [13] = up to 80 mg orally daily, up to one year; methanesulfonate; cited from earlier work
# Nrf2, Keap1, HO-1 = assay: Nrf2, Keap1 and HO-1 protein levels in Calu3 cells, flow cytometry; format: cell-based, human; details: infected and uninfected Calu3
# Vero cells = assay: XTT cell cytotoxicity assay in uninfected Vero cells; format: cell-based, African green monkey; details: uninfected cultures, 10-1000 nM
# Method: To measure cell viability to determine if there was any treatment-induced cytotoxicity, cells were plated and treated with drugs as described above. Cells were exposed to the same dilution series created for the in vitro efficacy studies. As above, vehicle-treated cells served as the 0% cytotoxicity control. After 24 h, cell viability was measured on a Synergy 2 Biotek microplate reader (Biotek Inc) via the XTT Cell Proliferation Assay Kit (ATCC® 30-1011K™) according to the manufacturer's protocol. Similar data were obtained in three independent experiments.
# SARS-CoV-2 [14] = assay: SARS-CoV-2 replication in human airway epithelial (HAE) air-liquid interface cultures, flow cytometry; format: cell-based
# cleaved caspase 3 [15] = format: cell-based, human; details: methanesulfonate
# SARS-CoV-2 [16] = assay: SARS-CoV-2 replication in HEK293T-hACE2 cells, flow cytometry; format: cell-based; details: 100 nM Mito-MES; methanesulfonate
# IL-6, IL-10 = format: cell-based, human
# [17] = cited from earlier work; remark: listed apart in the source
# [18] = tested on: ACE2, CD147, NRP1 and TMPRSS2; assay: Host entry factor protein levels in Calu3 cells, flow cytometry; format: cell-based, human; details: methanesulfonate
# MAVS, TOM70, STING, MX1 = assay: MAVS, TOM70, STING and MX1 protein levels in Calu3 cells, flow cytometry and immunofluorescence; format: cell-based, human
smiles,measurement,setting,value
"COC1=C(OC)C(=O)C(CCCCCCCCCC[P+](c2ccccc2)(c2ccccc2)c2ccccc2)=C(C)C1=O.CS(=O)(=O)[O-] [Mito-MES, 10-(4,5-dimethoxy-2-methyl-3,6-dioxo-1,4-cyclohexadienyl) decyl triphenylphosphonium methanesulfonate]","reduction of release of progeny virus, TCID50 analysis of cell supernatants","SARS-CoV-2 [1]; Calu3, 100 nM and 1000 nM Mito-MES",> 2 logs
same,"nucleocapsid protein expression, time-of-addition","SARS-CoV-2 [1]; Calu3, 1000 nM Mito-MES",inhibited nucleocapsid protein expression in Calu3 cells when added before infection (effect on viral entry) but also even when added 4 hours after infection
same,antiviral activity by immunofluorescence and PCR,"SARS-CoV-2 [1]; Calu3, 10-1000 nM, methanesulfonate",much more potent in Calu3 cells compared to Vero E6 cells; also recorded: potent antiviral activity against SARS-CoV-2 in Calu3 cells at concentrations as low as 10 nM
same,Viral replication by flow cytometry at 48 hpi in Calu3 cells,"SARS-CoV-2 [1]; DMF 10 μM, Mito-MES 100 nM, Mito-MES 100 nM+DMF 10 μM, […]",2.4%
same,Viral replication by flow cytometry at 48 hpi in Calu3 cells,"SARS-CoV-2 [1]; Mito-MES 1000 nM, Brusatol 250 nM, Mito-MES 1000 nM+Brusatol 250 nM",2.9%
same,IC50,"SARS-CoV-2 [1]; Severe acute respiratory syndrome coronavirus 2, Calu-3, 48 h, read-out: IC50 (FIG. 1-i)",20 nM
same,IC50,"SARS-CoV-2 [1]; Severe acute respiratory syndrome coronavirus 2, Calu-3, 72 h, read-out: IC50, % inhibition of viral replication (FIG. 5-c)",30 nM
same,"viral titers of infected cells vs vehicle control, TCID50-assay","SARS-CoV-2 [1]; […], 10 nM Mito-MES, 10 μM DMF, 100 nM 4F, alone or combined as labelled",reduced viral titers
same,lowest concentration that resulted in an observable antiviral effect,SARS-CoV-2 [1]; human lung epithelial cells,10 nM
same,mutagenicity and toxicity,[2],non-mutagenic and non-toxic
same,reduction in SARS-CoV-2 viral titers in the lungs relative to vehicle,"SARS-CoV-2 [3]; 4 mg/kg i.p. from 24 hours before infection, once per day",~2 log units
same,reduction in SARS-CoV-2 viral titers in the lungs relative to vehicle,"SARS-CoV-2 [3]; 4 mg/kg, 8 hours after infection",1.5 log units
same,"SARS-CoV-2 N protein among lung cell subtypes, flow cytometry",SARS-CoV-2 [3]; 3 dpi,had anti-SARS-CoV-2 activity in EPCAM(+) lung epithelial cells
same,viral titers compared to controls (vehicle),"SARS-CoV-2 [3]; K18-hACE2 mice, 4 mg/kg per day intraperitoneally, 72 hpi",viral titers were lower
same,reduction of the replication of SARS-CoV-2,"SARS-CoV-2 [3]; K18-hACE2 mice, overall",at least 2 orders of magnitude
same,"SARS-CoV-2-induced cleavage of caspase 3, immunofluorescence",cleaved caspase 3 [4]; Mito-MES 10-1000 nM,reduced SARS-CoV-2-induced increase in cleavage of caspase 3; also recorded: reduced by Mito-MES treatment
same,"percent of infected cells positive for cleaved caspase 3 and MFI of cleaved caspase 3 per cell, flow cytometry","cleaved caspase 3 [4]; Mito-MES 100 nM, 4F 10 μM",attenuated SARS-CoV-2-induced increase; also recorded: inhibits or reduces SARS-CoV-2-induced increase
same,"release of progeny SARS-CoV-2 virus particles to the cell supernatant, TCID50 assay",SARS-CoV-2 [5],reduction in subsequent release of progeny SARS-CoV-2 virus particles
same,"IC50 against SARS-CoV-2 compared to remdesivir, TCID50 assay",SARS-CoV-2 [5]; Vero E6,three orders of magnitude lower
same,"percent of cells positive for SARS-CoV-2 N and Spike S proteins, flow cytometry","SARS-CoV-2 [5]; Vero cells, methanesulfonate",reduced the percent of cells that were positive for SARS-CoV-2 N and Spike S proteins; also recorded: reduced the percent of infected cells that were positive for N protein
same,antiviral activity by immunofluorescence and qPCR,SARS-CoV-2 [5]; methanesulfonate,confirmed by immunofluorescence (IF) detection of SARS-CoV-2 and by qPCR; also recorded: modest antiviral activity
same,"secretion of IL-10, Luminex",[6],tended (p=0.09) to reduce the secretion of IL-10
same,SARS-CoV-2-induced secretion of IL-6,IL-6,attenuated the increase in secretion of IL-6
same,"reduction in IL-6 in the lungs, Luminex","[7]; 4 mg/kg i.p. daily, 3 dpi",at least 2 orders of magnitude
same,"reduction in IL-lb in the lungs, Luminex","[7]; 4 mg/kg i.p. daily, 3 dpi",at least 2 orders of magnitude
same,"frequency of CD45+ immune cells in lungs, flow cytometry",[7]; 3 dpi,reduced frequency of CD45+ immune
same,frequency of NK cells in lungs,[7]; 3 dpi,reduced frequency of NK cells
same,levels of TNFa,[7]; WT SARS-CoV-2,did not change
same,protein levels of IL-18,[7]; cohort A and cohort B,did not change protein levels of IL-18
same,"frequency of neutrophils, macrophages, myeloid DCs, lymphoid DCs, T cells, B cells","[7]; lungs, flow cytometry",did not alter frequency
same,average elevation of fasting plasma concentrations,"[8]; 40-80 mg/day, after about 10 days",about 5 ng/mL
same,plasma concentration after 24 h,"[8]; humans, single 40 mg oral dose",about 2 ng/ml
same,maximal plasma concentration,"[8]; humans, single 80 mg oral dose",33 ng/mL
same,time of maximal plasma concentration,"[8]; humans, single 80 mg oral dose",about 1 h
same,antiviral activity against fluorescent SARS-CoV-2,icSARS-CoV-2-mNG [9],potent and similar antiviral activity
same,antiviral activity against fluorescent SARS-CoV-2,icSARS-CoV-2-mNG [10],potent and similar antiviral activity
same,anti-MHV-A59 activity,[11],anti-MHV-A59 activity
same,ROS content of Calu3 cells,[12],increased the ROS content of Calu3 cells
same,safety in humans,[13],safety for up to one year in doses as high as 80 mg orally daily has been validated; also recorded: without any serious adverse events
same,protein levels of Nrf2,"Nrf2, Keap1, HO-1",did not impact protein levels of Nrf2
same,protein levels of Keap (Keap1),"Nrf2, Keap1, HO-1; methanesulfonate","reduced protein levels of the endogenous Nrf2 inhibitor, Keap1; also recorded: reduced protein levels of Keap"
same,"cytotoxicity, XTT cell cytotoxicity assay",Vero cells,no observed cytotoxicity
same,Viral replication by flow cytometry in human airway epithelial cells,"SARS-CoV-2 [14]; 1 μM Mito-MES, Control 20.0%, MOI 0.1",0.4%
same,"percent of SARS-CoV-2 infected human lung epithelial cells, flow cytometry","SARS-CoV-2 [14]; HAE ALI cultures, 100 nM Mito-MES",significantly reduced the percent of SARS-CoV-2 infected human lung epithelial cells
same,"percent of SARS-CoV-2 infected FOXJ1+ ciliated epithelial cells, flow cytometry","SARS-CoV-2 [14]; HAE ALI cultures, methanesulfonate",significantly reduced the percent of human FOXJ1 (forkhead box J1) positive ciliated epithelial cells infected with SARS-CoV-2
same,"SARS-CoV-2-induced cleavage of caspase 3, immunofluorescence","cleaved caspase 3 [15]; Calu3, Mito-MES 10-1000 nM",reduced SARS-CoV-2-induced increase in cleavage of caspase 3; also recorded: reduced by Mito-MES treatment
same,"percent of infected cells positive for cleaved caspase 3 and MFI of cleaved caspase 3 per cell, flow cytometry","cleaved caspase 3 [15]; Calu3, Mito-MES 100 nM, 4F 10 μM",attenuated SARS-CoV-2-induced increase; also recorded: inhibits or reduces SARS-CoV-2-induced increase
same,"percent of SARS-CoV-2 infected HEK293T-hACE2 cells, flow cytometry",SARS-CoV-2 [16],significantly reduced the percent of SARS-CoV-2 infected human non-cancerous HEK293T epithelial cells
same,secretion / release of IL-6,"IL-6, IL-10",attenuated SARS-CoV-2-induced increase in secretion of IL-6
same,secretion of IL-10,"IL-6, IL-10",reduced secretion of IL-10
same,elimination half-life,[17]; based on post 4 h data,about 14 h
same,lung tissue penetration,"[17]; mice, 4 mg/kg/day",good lung tissue penetration
same,accumulation in tissues including liver and kidney,"[17]; mice, >10 days of oral supplementation",50 to 700 pmol/g (wet weight)
same,time of peak plasma concentration,[17]; oral administration,≤ 1 h
same,"protein levels of ACE2, TMPRSS2, NRP1 and CD147",[18],did not impact; also recorded: Neither SARS-CoV-2 infection nor Mito-MES significantly modulates protein levels
same,MX1 protein levels,"MAVS, TOM70, STING, MX1; Calu3, flow cytometry, 4F 10 μM",increased MX1 protein levels
same,STING protein levels,"MAVS, TOM70, STING, MX1; infected Calu3, flow cytometry, methanesulfonate",did not impact stimulator of interferon genes (STING)
same,"TOM70 protein levels, immunofluorescence","MAVS, TOM70, STING, MX1; infected Calu3 vs vehicle, methanesulfonate",confirmed by immunofluorescence; also recorded: dose-dependent increase in TOM70 protein levels
same,MAVS protein levels,"MAVS, TOM70, STING, MX1; total and infected Calu3, flow cytometry, methanesulfonate",no impact; also recorded: did not modulate MAVS protein levels
same,"TOM70 protein levels, flow cytometry","MAVS, TOM70, STING, MX1; total and infected Calu3, methanesulfonate",increased the translocase of the outer membrane 70 (TOM70) protein levels
